Results as given in ChEMBL document CHEMBL3297736, “Rational improvement of the affinity and selectivity of integrin binding of grafted lasso peptides” (J Med Chem, 2014).
Peptide text beside a SMILES is read from it.

Experiments:
Integrin alpha-V/beta-3 [1] = molecular target: T1, Integrin alpha-V/beta-3 (Homo sapiens, UniProt P05106+P06756); experiment: Inhibition of vitronectin binding to human alphaVbeta3 integrin after 2 hrs by ELISA; type: protein-complex assay
Target sequence in this assay (P05106 27-788 limits assumed): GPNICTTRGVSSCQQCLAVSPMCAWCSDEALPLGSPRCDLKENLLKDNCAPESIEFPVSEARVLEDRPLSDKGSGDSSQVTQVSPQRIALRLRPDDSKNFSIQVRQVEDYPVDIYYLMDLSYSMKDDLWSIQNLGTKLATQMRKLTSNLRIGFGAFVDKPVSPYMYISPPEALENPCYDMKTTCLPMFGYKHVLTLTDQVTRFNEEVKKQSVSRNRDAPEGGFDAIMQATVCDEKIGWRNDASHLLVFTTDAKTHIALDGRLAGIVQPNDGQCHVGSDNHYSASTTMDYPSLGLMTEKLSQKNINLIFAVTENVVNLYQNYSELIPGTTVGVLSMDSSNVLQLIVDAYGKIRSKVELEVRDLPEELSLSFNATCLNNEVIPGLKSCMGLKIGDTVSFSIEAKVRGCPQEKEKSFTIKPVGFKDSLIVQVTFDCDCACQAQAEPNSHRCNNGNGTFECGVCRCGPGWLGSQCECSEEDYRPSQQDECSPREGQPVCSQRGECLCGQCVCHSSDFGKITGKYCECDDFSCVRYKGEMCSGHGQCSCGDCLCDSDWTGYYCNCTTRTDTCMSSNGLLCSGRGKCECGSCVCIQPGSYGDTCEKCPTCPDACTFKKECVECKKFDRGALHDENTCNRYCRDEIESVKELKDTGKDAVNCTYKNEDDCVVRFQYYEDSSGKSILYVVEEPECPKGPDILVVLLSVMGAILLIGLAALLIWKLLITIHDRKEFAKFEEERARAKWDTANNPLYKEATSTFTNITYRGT
Target sequence in this assay (P06756 31-889 limits assumed): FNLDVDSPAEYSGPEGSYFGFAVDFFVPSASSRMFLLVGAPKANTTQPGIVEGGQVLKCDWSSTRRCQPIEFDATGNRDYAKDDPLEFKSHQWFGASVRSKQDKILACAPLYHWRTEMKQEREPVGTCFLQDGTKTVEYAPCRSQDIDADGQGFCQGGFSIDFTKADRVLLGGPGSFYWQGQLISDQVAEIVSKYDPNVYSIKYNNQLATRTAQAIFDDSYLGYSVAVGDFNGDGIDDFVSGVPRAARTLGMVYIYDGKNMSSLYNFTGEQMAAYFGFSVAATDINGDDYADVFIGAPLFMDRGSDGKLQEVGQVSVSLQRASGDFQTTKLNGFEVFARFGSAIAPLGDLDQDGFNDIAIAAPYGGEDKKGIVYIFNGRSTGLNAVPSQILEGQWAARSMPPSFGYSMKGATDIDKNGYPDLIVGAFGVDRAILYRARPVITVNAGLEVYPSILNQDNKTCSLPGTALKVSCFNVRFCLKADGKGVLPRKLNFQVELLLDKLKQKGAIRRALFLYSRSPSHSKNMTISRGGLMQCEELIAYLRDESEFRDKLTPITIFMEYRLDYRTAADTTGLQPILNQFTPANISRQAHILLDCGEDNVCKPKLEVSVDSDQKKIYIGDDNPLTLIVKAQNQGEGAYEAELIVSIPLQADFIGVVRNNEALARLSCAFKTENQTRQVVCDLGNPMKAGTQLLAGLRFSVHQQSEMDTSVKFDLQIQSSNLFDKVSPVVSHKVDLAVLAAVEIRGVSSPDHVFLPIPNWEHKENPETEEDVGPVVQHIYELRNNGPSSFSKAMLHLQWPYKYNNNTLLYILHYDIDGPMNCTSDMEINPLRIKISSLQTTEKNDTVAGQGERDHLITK
Target sequence in this assay (P06756 891-1048 limits assumed): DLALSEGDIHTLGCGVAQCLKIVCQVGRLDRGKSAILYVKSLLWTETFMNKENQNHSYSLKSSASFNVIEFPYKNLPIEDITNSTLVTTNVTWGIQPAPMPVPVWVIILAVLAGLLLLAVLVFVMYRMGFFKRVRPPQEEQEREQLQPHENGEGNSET

Integrin alpha-V/beta-5 = Integrin alpha-V/beta-5 (Homo sapiens, UniProt P06756+P18084); experiment: Inhibition of vitronectin binding to human alphaVbeta5 integrin after 1 hr by ELISA; type: protein-complex assay
Sequence of Integrin alpha-V/beta-5 (P06756 31-889 limits assumed): as the sequence (P06756 31-889 limits assumed) above
Sequence of Integrin alpha-V/beta-5 (P06756 891-1048 limits assumed): as the sequence (P06756 891-1048 limits assumed) above
Sequence of Integrin alpha-V/beta-5 (P18084 24-799 limits assumed): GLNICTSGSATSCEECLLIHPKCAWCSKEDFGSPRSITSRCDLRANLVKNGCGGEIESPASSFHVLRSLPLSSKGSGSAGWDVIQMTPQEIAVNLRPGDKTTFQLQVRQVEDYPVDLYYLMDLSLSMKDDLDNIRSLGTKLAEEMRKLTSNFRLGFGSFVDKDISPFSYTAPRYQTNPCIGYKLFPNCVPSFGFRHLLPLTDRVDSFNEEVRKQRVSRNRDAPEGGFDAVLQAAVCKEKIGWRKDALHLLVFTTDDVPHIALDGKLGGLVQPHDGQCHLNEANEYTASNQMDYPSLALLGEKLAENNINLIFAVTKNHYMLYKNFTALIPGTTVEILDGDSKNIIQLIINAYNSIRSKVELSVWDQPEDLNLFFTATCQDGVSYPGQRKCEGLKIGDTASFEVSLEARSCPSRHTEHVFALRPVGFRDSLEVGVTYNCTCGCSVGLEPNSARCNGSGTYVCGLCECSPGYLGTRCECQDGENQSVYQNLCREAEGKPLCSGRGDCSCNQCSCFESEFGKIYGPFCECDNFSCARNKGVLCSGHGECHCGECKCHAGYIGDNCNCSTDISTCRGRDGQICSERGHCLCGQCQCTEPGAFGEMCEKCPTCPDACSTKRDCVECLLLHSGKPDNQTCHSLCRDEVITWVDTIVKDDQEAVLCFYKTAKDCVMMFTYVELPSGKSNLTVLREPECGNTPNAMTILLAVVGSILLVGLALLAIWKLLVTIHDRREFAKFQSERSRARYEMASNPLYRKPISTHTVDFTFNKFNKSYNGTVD

Integrin alpha-5/beta-1 = Integrin alpha-5/beta-1 (Homo sapiens, UniProt P05556+P08648); experiment: Inhibition of fibronectin binding to human alpha5beta1 integrin after 1 hr by ELISA; type: protein-complex assay
[2] = molecular target: Integrin alpha-IIb/beta-3 (Homo sapiens, UniProt P05106+P08514); experiment: Inhibition of fibrinogen binding to human alpha2b/beta3 integrin after 1 hr by ELISA; type: protein-complex assay
Sequence of Integrin alpha-IIb/beta-3 (P05106 27-788 limits assumed): as the sequence (P05106 27-788 limits assumed) above
Sequence of Integrin alpha-IIb/beta-3 (P08514 32-887 limits assumed): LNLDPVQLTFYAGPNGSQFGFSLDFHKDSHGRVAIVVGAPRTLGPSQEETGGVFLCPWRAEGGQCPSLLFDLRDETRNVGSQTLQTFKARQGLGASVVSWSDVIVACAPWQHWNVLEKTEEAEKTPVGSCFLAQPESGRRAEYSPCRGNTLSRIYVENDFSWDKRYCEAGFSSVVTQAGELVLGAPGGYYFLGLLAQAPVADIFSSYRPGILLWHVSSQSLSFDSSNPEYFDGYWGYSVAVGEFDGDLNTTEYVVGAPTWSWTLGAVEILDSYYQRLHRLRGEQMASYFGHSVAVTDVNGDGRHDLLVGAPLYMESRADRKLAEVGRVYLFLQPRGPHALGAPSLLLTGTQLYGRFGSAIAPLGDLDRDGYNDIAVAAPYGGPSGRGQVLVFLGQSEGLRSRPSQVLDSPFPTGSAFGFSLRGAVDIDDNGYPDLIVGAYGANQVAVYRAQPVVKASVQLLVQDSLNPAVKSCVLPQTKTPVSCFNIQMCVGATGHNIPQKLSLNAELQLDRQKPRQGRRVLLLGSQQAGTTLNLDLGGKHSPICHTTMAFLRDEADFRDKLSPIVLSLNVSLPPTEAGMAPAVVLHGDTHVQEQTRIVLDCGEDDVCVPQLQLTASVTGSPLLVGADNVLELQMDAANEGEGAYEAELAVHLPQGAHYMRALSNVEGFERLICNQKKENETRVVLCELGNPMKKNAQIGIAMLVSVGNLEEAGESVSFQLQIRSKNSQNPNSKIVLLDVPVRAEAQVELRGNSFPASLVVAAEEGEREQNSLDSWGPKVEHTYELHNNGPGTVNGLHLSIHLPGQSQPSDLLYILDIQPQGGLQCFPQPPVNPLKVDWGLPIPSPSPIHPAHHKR
Sequence of Integrin alpha-IIb/beta-3 (P08514 891-1039 limits assumed): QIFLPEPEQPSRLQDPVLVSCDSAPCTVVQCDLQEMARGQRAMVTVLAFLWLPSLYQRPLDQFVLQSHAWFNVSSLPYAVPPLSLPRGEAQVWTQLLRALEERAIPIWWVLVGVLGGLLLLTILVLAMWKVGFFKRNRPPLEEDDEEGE

Homo sapiens = species on record: Homo sapiens; experiment: Selectivity ratio IC50 for human alpha2b/beta3 integrin to IC50 for human alphaVbeta3 integrin
Integrin alpha-V/beta-3 [3] = molecular target: T1, Integrin alpha-V/beta-3; experiment: Inhibition of alphavbeta3 integrin-mediated capillary tube formation in HUVEC after 16 hrs by matrigel assay; type: protein-complex assay
Integrin alpha-V/beta-3 [4] = molecular target: T1, Integrin alpha-V/beta-3; experiment: Inhibition of alphavbeta3 integrin-mediated cell adhesion in HUVEC after 15 mins by matrigel assay; type: protein-complex assay

IC50 (Integrin alpha-V/beta-3 [1]) | IC50 (Integrin alpha-V/beta-5) | IC50 (Integrin alpha-5/beta-1) | IC50 [2] | Ratio IC50 (Homo sapiens) | inhibition (Integrin alpha-V/beta-3 [3]) | inhibition (Integrin alpha-V/beta-3 [4]) | SMILES
4.1 µM | 92 µM | 1550 µM | 725 µM | 177 | Dose-dependent effect | Dose-dependent effect | N=C(N)NCCC[C@H](N)C(=O)NCC(=O)N[C@@H](CC(=O)O)C(=O)N[C@@H](Cc1ccccc1)C(=O)O (H-RGDF-OH)
 |  |  |  |  | Dose-dependent effect | Dose-dependent effect | NC(N)=NCCC[C@H](N)C(=O)NCC(=O)N[C@@H](CC(=O)O)C(=O)O
12 µM | 38 µM |  | 130 µM |  |  |  | N=C(N)NCCC[C@H](N)C(=O)NCC(=O)N[C@@H](CC(=O)O)C(=O)O
